Columns and labels:
Assay in all cases: relative viability (nuclei count vs DMSO), 5 days (fraction); higher = more cells survive
[1] = compound: NC(=O)c1ccc(N(C(N)=O)c2c(F)cccc2F)nc1-c1ccc(F)cc1F [VX-702] + NC(=O)Nc1cc(-c2cccc(F)c2)sc1C(=O)N[C@H]1CCCNC1 [AZD7762] (partner 0.2 µM)
How it was run: (§1)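 Relative viability divides the nuclei count in treated wells by that in vehicle wells. Lung cancer cell lines were seeded in 1536-well plates, dosed by pin tool the next day, and fixed and stained after 5 days in one step with final 0.05% Triton X-100, 1% formaldehyde and 1 ug/ml Hoechst. Dosing was a single drug or a fixed anchor-drug dose plus five library-drug doses (not always all listed) in √10 steps, and values are medians of duplicate plates imaged at 4×.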

[2] = compound: CC(C)(C)c1nc(-c2cccc(NS(=O)(=O)c3c(F)cccc3F)c2F)c(-c2ccnc(N)n2)s1 [Dabrafenib] + COc1cccc2cc(-c3nc([C@H]4CC[C@H](C(=O)O)CC4)n4ncnc(N)c34)[nH]c12 [OSI-027] (partner 0.5 µM)
How it was run: as §1

[3] = compound: NC(=O)c1ccc(N(C(N)=O)c2c(F)cccc2F)nc1-c1ccc(F)cc1F [VX-702] + CS(=O)(=O)CCNCc1ccc(-c2ccc3ncnc(Nc4ccc(OCc5cccc(F)c5)c(Cl)c4)c3c2)o1 [Lapatinib] (partner 2 µM)
How it was run: as §1

[4] = compound: NC(=O)c1ccc(N(C(N)=O)c2c(F)cccc2F)nc1-c1ccc(F)cc1F [VX-702] + CCNC(=O)c1noc(-c2cc(C(C)C)c(O)cc2O)c1-c1ccc(CN2CCOCC2)cc1 [Luminespib] (partner 0.01 µM)
How it was run: as §1

Row | Cell Line | relative viability ([1]; first compound 0.02 µM) | relative viability ([1]; first compound 0.2 µM) | relative viability ([1]; first compound 0.6325 µM) | relative viability ([1]; first compound 2 µM) | relative viability ([2]; first compound 0.003 µM) | relative viability ([2]; first compound 0.009487 µM) | relative viability ([2]; first compound 0.03 µM) | relative viability ([2]; first compound 0.09487 µM) | relative viability ([2]; first compound 0.3 µM) | relative viability ([3]; first compound 0.02 µM) | relative viability ([3]; first compound 0.2 µM) | relative viability ([3]; first compound 0.6325 µM) | relative viability ([3]; first compound 2 µM) | relative viability ([4]; first compound 0.02 µM) | relative viability ([4]; first compound 0.2 µM) | relative viability ([4]; first compound 0.6325 µM) | relative viability ([4]; first compound 2 µM)
1 | NCI-H358 | 0.542 | 0.461 | 0.45 | 0.572 | 0.486 | 0.923 | 0.74 | 0.576 | 0.655 | 0.485 | 0.442 | 0.484 | 0.546 | 0.245 | 0.416 | 0.583 | 0.4
2 | NCI-H460 | 0.732 | 0.585 | 0.721 | 0.638 | 0.641 | 0.651 | 0.629 | 0.591 | 0.534 | 0.931 | 0.906 | 1.14 | 0.984 | 0.0333 | 0.0359 | 0.0358 | 0.0313
3 | NCI-H596 | 1.1 | 1.03 | 1.12 | 1.09 | – | 0.976 | 0.63 | 0.658 | 0.886 | 1.09 | 1.01 | 1.13 | 1.1 | 1.05 | 1.1 | 1.01 | 1.11
4 | NCI-H647 | 0.461 | 0.386 | 0.494 | 0.567 | 0.325 | 0.704 | 0.561 | 0.582 | 0.476 | 1.15 | 0.935 | 1.24 | 1.25 | 0.216 | 0.478 | 0.143 | 0.17
5 | NCI-H650 | 0.943 | 0.894 | 0.936 | 1.16 | – | 0.578 | 0.427 | 0.331 | 0.301 | 0.876 | – | 0.43 | 1.16 | 0.661 | – | 0.78 | 0.961
6 | NCI-H727 | 0.436 | 0.526 | 0.502 | 0.574 | – | 0.395 | 0.677 | 0.568 | 0.643 | 0.88 | 0.671 | 0.818 | 0.911 | 0.306 | 0.345 | 0.296 | 0.294
7 | NCI-H838 | 0.937 | 0.912 | 1.05 | 0.903 | 0.339 | 0.483 | 0.388 | 0.405 | 0.412 | 1.06 | 1.01 | 1.13 | 1.35 | 0.332 | 0.333 | 0.273 | 0.299
8 | NCI-H1355 | 0.867 | 0.672 | 0.83 | 0.813 | – | 0.477 | 0.34 | 0.416 | 0.44 | 1.09 | 0.984 | 0.998 | 1.28 | 0.72 | 0.632 | 0.729 | 0.76
9 | NCI-H1395 | 0.419 | 0.427 | 0.411 | 0.408 | 0.377 | 0.692 | 0.594 | 0.583 | 0.589 | 0.898 | 1.16 | 1.09 | 1.17 | 0.634 | 0.592 | 0.892 | 0.712
10 | NCI-H1437 | 1.06 | 1.16 | 1.23 | 1.16 | 0.926 | 0.849 | 1.04 | 0.922 | 0.878 | 0.779 | 0.753 | 0.972 | 0.959 | 1.17 | 1.14 | 1.14 | 1.4

Source: the supplement of paper PMC10307832
